Reference: patent publication US9790228B2, “Heterocyclic kinase inhibitors” (Intellikine LLC, priority 2008, dated 2017)

Columns and labels:
[1] = target: p110β/p85α (Homo sapiens, UniProt P42338); experiment: PI3K β inhibition assay (TLC lipid kinase or HTRF); type: biochemical; conditions: read-out: PI3K β IC50
How it was run: (§1)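 IC50 from TLC lipid kinase assay (25 mM HEPES pH 7.4, 10 mM MgCl2, 100 μg/ml phosphatidylinositol, 10 or 100 μM γ-32P-ATP, 5 min RT, phosphorimager) at 10–12 two-fold dilutions, or HTRF (10 μM PIP2, 10 μM ATP, 1 h RT) measuring PIP3 by TR-FRET; 2% DMSO final.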

[2] = test system: Balb/c splenic B cells; experiment: B cell activation and proliferation assay (Alamar Blue); type: cell-based, mouse; conditions: Mus musculus, B-cell
Method: The ability of one or more subject compounds to inhibit B cell activation and proliferation is determined according to standard procedures known in the art. For example, an in vitro cellular proliferation assay is established that measures the metabolic activity of live cells. The assay is performed in a 96 well microtiter plate using Alamar Blue reduction. Balb/c splenic B cells are purified over a Ficoll-Paque™ PLUS gradient followed by magnetic cell separation using a MACS B cell Isolation Kit (Miletenyi). Cells are plated in 90 ul at 50,000 cells/well in B Cell Media (RPMI+10% FBS+Penn/Strep+50 uM bME+5 mM HEPES). A compound disclosed herein is diluted in B Cell Media and added in a 10 ul volume. Plates are incubated for 30 min at 37 C and 5% CO2 (0.2% DMSO final concentration). A 50 ul B cell stimulation cocktail is then added containing either 10 ug/ml LPS or 5 ug/ml F(ab′)2 Donkey anti-mouse IgM plus 2 ng/ml recombinant mouse IL4 in B Cell Media. Plates are incubated for 72 hours at 37° C. and 5% CO2. A volume of 15 uL of Alamar Blue reagent is added to each well and plates are incubated for 5 hours at 37 C and 5% CO2. Alamar Blue fluoresce is read at 560Ex/590Em, and IC50 or EC50 values are calculated using GraphPad Prism 5.

[3] = target: p110δ/p85α (Homo sapiens (Human), UniProt O00329); experiment: PI3K δ inhibition assay (TLC lipid kinase or HTRF); type: biochemical
How it was run: as §1

[4] = target: p110γ (Homo sapiens (Human), UniProt P48736); experiment: PI3K γ inhibition assay (TLC lipid kinase or HTRF); type: biochemical
How it was run: as §1

[5] = target: p110α/p85α (Homo sapiens (Human), UniProt P42336); experiment: PI3K α inhibition assay (TLC lipid kinase or HTRF); type: biochemical
How it was run: as §1

Sequence of p110γ (P48736 whole entry): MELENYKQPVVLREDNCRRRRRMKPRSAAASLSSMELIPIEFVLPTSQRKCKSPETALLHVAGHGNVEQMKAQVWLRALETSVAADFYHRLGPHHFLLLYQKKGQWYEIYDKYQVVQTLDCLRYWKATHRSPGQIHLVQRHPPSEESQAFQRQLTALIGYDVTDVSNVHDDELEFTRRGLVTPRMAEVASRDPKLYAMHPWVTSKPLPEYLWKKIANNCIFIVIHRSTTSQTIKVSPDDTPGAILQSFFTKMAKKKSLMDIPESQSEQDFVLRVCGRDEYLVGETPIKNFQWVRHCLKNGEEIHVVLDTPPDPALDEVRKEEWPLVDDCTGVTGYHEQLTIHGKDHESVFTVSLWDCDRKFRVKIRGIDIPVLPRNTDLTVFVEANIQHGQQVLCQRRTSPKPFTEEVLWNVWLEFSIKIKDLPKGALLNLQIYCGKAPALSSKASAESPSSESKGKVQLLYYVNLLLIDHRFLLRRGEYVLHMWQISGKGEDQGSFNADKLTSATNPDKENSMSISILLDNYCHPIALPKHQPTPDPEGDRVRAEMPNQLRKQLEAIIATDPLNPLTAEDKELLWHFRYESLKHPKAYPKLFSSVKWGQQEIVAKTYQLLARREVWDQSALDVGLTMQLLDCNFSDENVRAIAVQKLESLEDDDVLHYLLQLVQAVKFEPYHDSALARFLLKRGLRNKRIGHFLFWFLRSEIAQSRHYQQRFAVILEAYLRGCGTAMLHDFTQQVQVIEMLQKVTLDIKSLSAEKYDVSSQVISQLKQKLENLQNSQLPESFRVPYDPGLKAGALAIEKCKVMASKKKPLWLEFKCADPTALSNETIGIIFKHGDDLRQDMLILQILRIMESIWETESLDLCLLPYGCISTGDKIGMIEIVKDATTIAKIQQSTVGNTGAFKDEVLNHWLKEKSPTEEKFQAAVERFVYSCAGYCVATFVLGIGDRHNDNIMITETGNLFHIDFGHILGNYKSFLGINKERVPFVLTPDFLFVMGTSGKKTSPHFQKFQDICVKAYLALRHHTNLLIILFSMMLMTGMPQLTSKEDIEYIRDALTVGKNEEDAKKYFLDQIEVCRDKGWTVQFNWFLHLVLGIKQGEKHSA
Sequence of p110δ/p85α (O00329 whole entry): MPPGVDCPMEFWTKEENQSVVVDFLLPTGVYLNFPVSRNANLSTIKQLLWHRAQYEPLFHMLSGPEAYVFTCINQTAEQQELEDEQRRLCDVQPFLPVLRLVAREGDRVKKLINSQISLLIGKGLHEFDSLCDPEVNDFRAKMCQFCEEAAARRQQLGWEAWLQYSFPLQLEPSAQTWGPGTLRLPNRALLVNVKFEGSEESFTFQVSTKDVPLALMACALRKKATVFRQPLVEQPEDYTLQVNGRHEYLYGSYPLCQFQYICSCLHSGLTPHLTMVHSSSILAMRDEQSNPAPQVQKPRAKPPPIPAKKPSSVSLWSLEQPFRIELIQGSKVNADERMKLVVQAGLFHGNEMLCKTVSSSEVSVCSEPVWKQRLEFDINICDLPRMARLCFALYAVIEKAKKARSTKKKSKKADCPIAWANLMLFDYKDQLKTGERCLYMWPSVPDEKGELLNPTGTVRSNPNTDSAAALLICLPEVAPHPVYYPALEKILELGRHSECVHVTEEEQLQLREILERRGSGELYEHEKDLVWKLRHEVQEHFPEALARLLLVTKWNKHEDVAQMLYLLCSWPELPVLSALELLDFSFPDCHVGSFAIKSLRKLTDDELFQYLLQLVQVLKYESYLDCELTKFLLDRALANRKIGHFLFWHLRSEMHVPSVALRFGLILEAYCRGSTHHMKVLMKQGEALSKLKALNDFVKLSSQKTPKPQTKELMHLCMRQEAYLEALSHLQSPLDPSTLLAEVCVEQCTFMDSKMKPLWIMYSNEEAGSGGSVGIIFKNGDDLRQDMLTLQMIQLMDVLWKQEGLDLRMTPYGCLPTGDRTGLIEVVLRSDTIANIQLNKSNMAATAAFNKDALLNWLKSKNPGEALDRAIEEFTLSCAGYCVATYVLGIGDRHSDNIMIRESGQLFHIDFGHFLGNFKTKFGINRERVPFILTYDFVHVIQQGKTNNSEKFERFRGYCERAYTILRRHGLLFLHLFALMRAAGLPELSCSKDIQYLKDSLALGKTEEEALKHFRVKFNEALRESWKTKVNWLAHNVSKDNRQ
Sequence of p110δ/p85α (P27986 whole entry partner): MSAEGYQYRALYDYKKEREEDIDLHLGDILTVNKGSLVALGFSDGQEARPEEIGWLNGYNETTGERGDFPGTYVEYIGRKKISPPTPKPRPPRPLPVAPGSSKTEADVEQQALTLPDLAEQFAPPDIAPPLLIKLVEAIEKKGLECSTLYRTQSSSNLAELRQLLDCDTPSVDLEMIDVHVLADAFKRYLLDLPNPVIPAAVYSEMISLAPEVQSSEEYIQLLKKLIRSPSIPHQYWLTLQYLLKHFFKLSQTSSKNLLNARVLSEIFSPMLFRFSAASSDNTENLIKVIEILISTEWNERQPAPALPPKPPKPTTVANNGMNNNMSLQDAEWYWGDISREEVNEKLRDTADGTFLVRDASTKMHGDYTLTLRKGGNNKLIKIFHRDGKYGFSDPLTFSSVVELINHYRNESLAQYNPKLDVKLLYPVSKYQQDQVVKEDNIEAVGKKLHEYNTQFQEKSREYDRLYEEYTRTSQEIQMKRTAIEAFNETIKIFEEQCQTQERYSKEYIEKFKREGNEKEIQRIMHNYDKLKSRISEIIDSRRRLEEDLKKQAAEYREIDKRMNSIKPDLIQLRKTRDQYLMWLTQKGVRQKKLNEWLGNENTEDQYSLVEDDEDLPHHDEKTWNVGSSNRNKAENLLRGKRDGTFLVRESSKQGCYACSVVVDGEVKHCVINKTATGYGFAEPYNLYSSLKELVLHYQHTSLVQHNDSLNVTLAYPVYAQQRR
Sequence of p110α/p85α (P42336 whole entry): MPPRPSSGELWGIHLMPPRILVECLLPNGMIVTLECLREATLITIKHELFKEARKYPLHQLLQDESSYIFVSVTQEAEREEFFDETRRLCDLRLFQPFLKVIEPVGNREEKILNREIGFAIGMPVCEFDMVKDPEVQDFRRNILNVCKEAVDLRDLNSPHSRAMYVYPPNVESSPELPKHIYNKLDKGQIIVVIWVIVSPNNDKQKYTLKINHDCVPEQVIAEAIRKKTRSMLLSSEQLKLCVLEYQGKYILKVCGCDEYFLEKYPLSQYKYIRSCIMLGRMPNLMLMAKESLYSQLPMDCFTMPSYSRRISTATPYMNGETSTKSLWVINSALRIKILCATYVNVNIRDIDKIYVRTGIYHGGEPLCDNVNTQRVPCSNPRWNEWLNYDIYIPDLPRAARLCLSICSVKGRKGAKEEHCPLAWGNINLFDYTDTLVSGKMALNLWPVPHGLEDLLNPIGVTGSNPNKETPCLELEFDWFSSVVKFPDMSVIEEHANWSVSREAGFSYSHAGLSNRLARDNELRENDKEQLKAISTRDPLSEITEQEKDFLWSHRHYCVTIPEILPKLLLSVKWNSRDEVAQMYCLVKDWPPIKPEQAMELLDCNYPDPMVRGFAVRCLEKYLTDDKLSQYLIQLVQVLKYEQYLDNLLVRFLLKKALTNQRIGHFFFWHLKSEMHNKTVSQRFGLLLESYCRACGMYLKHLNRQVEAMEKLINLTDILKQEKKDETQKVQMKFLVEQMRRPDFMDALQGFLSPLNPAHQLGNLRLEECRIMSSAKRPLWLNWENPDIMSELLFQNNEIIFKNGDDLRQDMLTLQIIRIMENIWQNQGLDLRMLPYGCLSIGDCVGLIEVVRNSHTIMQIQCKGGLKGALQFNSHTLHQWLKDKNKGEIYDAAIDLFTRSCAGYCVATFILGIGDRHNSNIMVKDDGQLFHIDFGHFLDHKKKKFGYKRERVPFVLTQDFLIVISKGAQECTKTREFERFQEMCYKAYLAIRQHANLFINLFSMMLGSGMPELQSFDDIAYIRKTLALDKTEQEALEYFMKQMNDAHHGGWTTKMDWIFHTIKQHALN
Sequence of p110α/p85α (P27986 whole entry partner): as the sequence (P27986 whole entry partner) above
Sequence of p110β/p85α (P42338 whole entry, looked up): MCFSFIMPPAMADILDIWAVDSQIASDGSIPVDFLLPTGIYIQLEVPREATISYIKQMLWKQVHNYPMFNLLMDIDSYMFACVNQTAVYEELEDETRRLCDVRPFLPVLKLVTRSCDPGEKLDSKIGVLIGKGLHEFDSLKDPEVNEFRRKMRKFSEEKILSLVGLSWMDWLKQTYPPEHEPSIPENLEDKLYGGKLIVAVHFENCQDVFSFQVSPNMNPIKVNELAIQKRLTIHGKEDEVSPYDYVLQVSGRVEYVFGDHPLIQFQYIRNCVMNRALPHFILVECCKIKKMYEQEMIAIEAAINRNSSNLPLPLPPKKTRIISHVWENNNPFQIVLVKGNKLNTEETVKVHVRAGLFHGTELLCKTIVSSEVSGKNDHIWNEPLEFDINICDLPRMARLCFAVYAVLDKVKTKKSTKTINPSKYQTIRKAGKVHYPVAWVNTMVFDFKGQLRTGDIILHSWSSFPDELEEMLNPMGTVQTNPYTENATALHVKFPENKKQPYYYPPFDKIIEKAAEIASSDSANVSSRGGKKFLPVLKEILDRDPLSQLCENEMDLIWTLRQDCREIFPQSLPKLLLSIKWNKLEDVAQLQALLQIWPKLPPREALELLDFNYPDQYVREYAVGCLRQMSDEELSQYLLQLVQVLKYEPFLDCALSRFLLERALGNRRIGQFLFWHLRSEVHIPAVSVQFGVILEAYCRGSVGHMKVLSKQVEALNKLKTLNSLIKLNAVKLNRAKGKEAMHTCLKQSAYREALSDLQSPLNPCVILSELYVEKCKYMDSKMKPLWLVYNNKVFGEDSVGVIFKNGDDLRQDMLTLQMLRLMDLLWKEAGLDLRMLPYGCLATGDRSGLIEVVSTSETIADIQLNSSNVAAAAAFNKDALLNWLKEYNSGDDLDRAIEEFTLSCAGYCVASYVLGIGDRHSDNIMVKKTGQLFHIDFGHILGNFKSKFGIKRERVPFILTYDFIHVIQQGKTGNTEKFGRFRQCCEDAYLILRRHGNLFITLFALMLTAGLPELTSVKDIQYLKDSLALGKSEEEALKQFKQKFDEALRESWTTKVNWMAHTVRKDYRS

Row | IC50 [1] | IC50 [3] | IC50 [4] | IC50 [5] | SMILES | EC50 [2]
1 | > 1000 nM | < 100 nM | < 100 nM | > 1000 nM | Nc1ncnc2c1c(I)nn2Cc1cc2ccccc2nc1N1CCCC1 [Compound 1] | 100 to 1000 nM
2 | > 1000 nM | < 100 nM | 100 to 1000 nM | > 1000 nM | Cc1ccccc1-c1nc2ccccc2cc1Cn1nc(I)c2c(N)ncnc21 [Compound 3] | 100 to 1000 nM
3 | > 1000 nM | < 100 nM | < 100 nM | > 1000 nM | Cc1ccccc1-c1nc2ccccc2cc1Cn1nc(-c2cc(O)cc(F)c2)c2c(N)ncnc21 [Compound 4] | < 100 nM
4 | > 1000 nM | < 100 nM | 100 to 1000 nM | > 1000 nM | Cc1ccccc1-c1nc2ccccc2cc1Cn1nc(-c2cccc(O)c2)c2c(N)ncnc21 [Compound 5] | 100 to 1000 nM
5 | > 1000 nM | < 100 nM | < 100 nM | > 1000 nM | Cc1ccccc1-c1nc2c(C)cccc2cc1Cn1nc(I)c2c(N)ncnc21 [Compound 7] | 100 to 1000 nM
6 | > 1000 nM | < 100 nM | < 100 nM | > 1000 nM | Cc1ccccc1-c1nc2c(C)cccc2cc1Cn1nc(-c2cc(O)cc(F)c2)c2c(N)ncnc21 [Compound 8] | < 100 nM
7 | 100 to 1000 nM | < 100 nM | < 100 nM | 100 to 1000 nM | CC(C)c1ccccc1-c1nc2ccccc2cc1Cn1nc(-c2cc(O)cc(F)c2)c2c(N)ncnc21 [Compound 17] | < 100 nM
8 | > 1000 nM | < 100 nM | 100 to 1000 nM | > 1000 nM | Nc1ncnc2c1c(-c1cc(O)cc(F)c1)nn2Cc1cc2ccccc2nc1Cl [Compound 54] | < 100 nM
9 | > 1000 nM | < 100 nM | < 100 nM | > 1000 nM | Cc1ccncc1-c1nc2ccccc2cc1Cn1nc(-c2cc(O)cc(F)c2)c2c(N)ncnc21 [Compound 56] | < 100 nM
10 | 100 to 1000 nM | < 100 nM | < 100 nM | 100 to 1000 nM | Nc1ncnc2c1c(-c1cc(O)cc(F)c1)nn2Cc1cc2ccccc2nc1-c1ccccc1 [Compound 57] | < 100 nM

Second part, the compound before the results:

Row | SMILES | IC50 [1] | IC50 [3] | IC50 [4] | IC50 [5] | EC50 [2]
11 | Nc1ncnc2c1c(-c1cc(O)cc(F)c1)nn2Cc1cc2ccccc2nc1N1CCCC1 [Compound 2] | 100 to 1000 nM | < 100 nM | < 100 nM | > 1000 nM | < 100 nM
12 | Cc1cccc2cc(Cn3nc(I)c4c(N)ncnc43)c(N3CCCC3)nc12 [Compound 6] | > 1000 nM | < 100 nM | > 1000 nM | > 1000 nM | 100 to 1000 nM
13 | CCN1CCN(c2nc3ccccc3cc2Cn2nc(-c3cc(O)cc(F)c3)c3c(N)ncnc32)CC1 [Compound 38] | < 100 nM | < 100 nM | > 1000 nM | > 1000 nM | < 100 nM
14 | CCC(c1cc2ccccc2nc1N1CCCC1)n1nc(-c2cccc(O)c2)c2c(N)ncnc21 (centres unmarked) [Compound 39] | > 1000 nM | < 100 nM | > 1000 nM | > 1000 nM | < 100 nM
15 | CCC(c1cc2ccccc2nc1N1CCCC1)n1nc(-c2cc(O)cc(F)c2)c2c(N)ncnc21 (centres unmarked) [Compound 40] | > 1000 nM | < 100 nM | 100 to 1000 nM | > 1000 nM | < 100 nM
16 | CN1CCN(c2nc3ccccc3cc2Cn2nc(-c3cccc(O)c3)c3c(N)ncnc32)CC1 [Compound 43] | 100 to 1000 nM | < 100 nM | > 1000 nM | > 1000 nM | 100 to 1000 nM
17 | CN1CCN(c2nc3ccccc3cc2Cn2nc(-c3cc(O)cc(F)c3)c3c(N)ncnc32)CC1 [Compound 50] | < 100 nM | < 100 nM | > 1000 nM | > 1000 nM | < 100 nM
18 | CC(C)N(C)c1nc2ccccc2cc1Cn1nc(-c2cc(O)cc(F)c2)c2c(N)ncnc21 [Compound 52] | 100 to 1000 nM | < 100 nM | 100 to 1000 nM | 100 to 1000 nM | < 100 nM
19 | Nc1ncnc2c1c(-c1cc(O)cc(F)c1)nn2Cc1cc2ccccc2nc1-c1cccnc1 [Compound 55] | > 1000 nM | < 100 nM | 100 to 1000 nM | > 1000 nM | < 100 nM
